These results are taken from BindingDB's records for doi:10.1021/jm00091a006 (University of Arizona, 1992).

The structures appear in SMILES notation.

A short description of the experiment: Compound was evaluated for its inhibitory potency against Opioid receptor delta 1 of Guinea pig ileum.
As usually defined, the IC50 is the concentration that gives 50% inhibition. The low end stands for inhibition by little substance, the high end for a need for much substance. Compound `C[C@H](c1ccc(O)cc1)[C@H](N)C(=O)N[C@H]1C(=O)NCC(=O)N[C@@H](Cc2ccccc2)C(=O)N[C@@H](C(=O)O)C(C)(C)SSC1(C)C` showed a concentration for half-maximal inhibition (IC50) of 3.4 µM.

On to `Cc1cc(O)ccc1C[C@@H](N)C(=O)N[C@H]1C(=O)NCC(=O)N[C@@H](Cc2ccccc2)C(=O)N[C@@H](C(=O)O)C(C)(C)SSC1(C)C`, for which half-maximal inhibition (IC50) was put at 6.61 µM.

The compound `C[C@@H](c1ccc(O)cc1)[C@H](N)C(=O)N[C@H]1C(=O)NCC(=O)N[C@@H](Cc2ccccc2)C(=O)N[C@@H](C(=O)O)C(C)(C)SSC1(C)C` returned an IC50 of 7.18 µM.

Compound `C[C@H](c1ccc(O)cc1)[C@@H](N)C(=O)N[C@H]1C(=O)NCC(=O)N[C@@H](Cc2ccccc2)C(=O)N[C@@H](C(=O)O)C(C)(C)SSC1(C)C` returned a concentration for half-maximal inhibition (IC50) of over 100 µM.
